System: Red imported fire ant (Solenopsis invicta)
Experiment: Fire ant repellency, honey plates near mounds (Example 6)
Assay type: in vivo
Settings: separate trial; about 100 mg per plate; within 4 feet of mounds
Text: Formulation A was poured into a plastic spray bottle and was sprayed onto 20 eight inch paper plates, one squeeze of the pump trigger per plate. […] Ten treated plates were placed randomly on the ground on a farm in Sparks, Ga., USA and ten control (untreated) plates were placed on the ground about 3 feet from the treated plates. Ten treated plates were placed about 4 feet from active Red imported fire ant mounds and ten control plates were placed near the same mounds no closer than 3 feet from the treated plates. Each plate received approximately 15 mL of an aqueous 25% honey solution.
Fifty percent of the control plates had active fire ant feeding within 15 minutes and 100% of the control plates had active fire ant feeding within 30 minutes.

With `COC(=O)c1ccccc1N` [methyl anthranilate] the “deterrence of fire ant feeding” value was “did not deter fire ants from feeding”.
